The numbers were not newly measured in patent US9693945B1, “Method of solubilizing a composition of a cleaned photochromic dye suitable for use on human skin” (priority 2016, dated 2017), which cites them from elsewhere.

This series has as its system Salmonella typhimurium. As to conditions: background on compounds formerly used in commercial products.

Molecules are shown by their SMILES.

Take `NC(=O)/C(=C\c1ccc([N+](=O)[O-])o1)c1ccco1` [furylfuramide]: the “Ames test outcome (identified as potential carcinogen)” value is “positive”.

Turning to `O=P(OCC(Br)CBr)(OCC(Br)CBr)OCC(Br)CBr` (centres unmarked) [tris (2,3-dibromopropyl) phosphate], the “Ames test outcome (identified as potential carcinogen)” value is reported as “positive”.
